Experimental data from patent US20100197668A1, “1,2,3,4-TETRAHYDROPYRROLO[1,2-A]PYRAZINE-6-CARBOXAMIDE AND 2,3,4,5-TETRAHYDROPYRROLO[1,2-a][1,4]-DIAZEPINE-7-CARBOXAMIDE DERIVATIVES, PREPARATION AND THERAPEUTIC USE THEREOF” (SANOFI-AVENTIS, priority 2007, published 2010).
Where a name gives a salt, the structure may show the parent alone.

Columns and labels:
[1] = target: T1, purified recombinant form of human BACE1 aspartyl protease (Homo sapiens, UniProt P56817); test: in vitro inhibition of β-secretase (BACE1) activity, cleavage of fluorogenic peptide substrate FS1 (FRET); assay type: biochemical; conditions: recombinant human BACE1 10 nM, substrate FS1 5 μM, sodium acetate buffer pH 4.5, 37° C., 45 minutes; read-out: IC50 (concentration of product giving 50% inhibition of the enzyme activity)
T1 construct: hexahistidine (C); made in house; host or cells: Drosophila cells
From the text: The compounds according to the invention have been the subject of pharmacological tests enabling their inhibitory effect with respect to β-secretase activity to be determined.
The tests consisted in measuring the in vitro inhibition of the β-secretase activity by the compounds of the invention.
The β-secretase activity measured corresponds to that of a purified recombinant form of human BACE1 aspartyl protease (the latter comprising a hexahistidine tag at the C-terminal position) produced by expression in Drosophila cells. The purified enzyme is conditioned in TRIS buffer (18 mM) at pH 7.5 containing NaCl (0.45M), MnCl2 (0.9 mM), CaCl2 (0.9 mM), α-D-methylmannoside and 10% glycerol, and stored at −80° C. until use.
The BACE1 activity is measured from the cleavage of a fluorogenic peptide substrate, known as FS1, described originally by Ermolieff et Coll. (2000, Biochemistry, 39, 12450-12456), and based on the principle of fluorescence resonance energy transfer (FRET); the cleavage of the FS1 peptide is measured from the increase of the fluorescent signal emitted by the EDANS (or 5-[(2-aminoethyl)amino]-naphthalene-2-sulfonic acid) group.
The test is carried out in a 96-well microplate in order to determine the inhibition of the enzyme activity by the products of the invention. The substrate FS1 is solubilized to a concentration of 1 mM in 100% dimethylsulfoxide (DMSO) and stored at −20° C. until use. The dilutions of the products to be tested are prepared in DMSO starting from a 10 mM stock solution. The products of the invention, at final concentrations of 0.003 to 10 μM are incubated at 37° C. with the substrate FS1 (final concentration of 5 μM) and the purified enzyme (final concentration of 10 nM) in the sodium acetate buffer (0.1 M), pH 4.5 containing 0.02% of CHAPS detergent and […] for 45 minutes. […] When the incubation is finished, the fluorescence is measured in a spectrofluorimeter, at the excitation wavelength of 355 nm and emission wavelength of 509 nm. For each product concentration tested, the fluorescent signal is compared to the maximum signal obtained when the substrate FS1 is only incubated with the enzyme.
The inhibitory activity of the products of the invention is then evaluated by the measurement of the IC50 (concentration of product giving 50% inhibition of the enzyme activity) using a non-linear regression analysis (computer application software XLfit, IDBS™).

T1 sequence (P56817 46-501): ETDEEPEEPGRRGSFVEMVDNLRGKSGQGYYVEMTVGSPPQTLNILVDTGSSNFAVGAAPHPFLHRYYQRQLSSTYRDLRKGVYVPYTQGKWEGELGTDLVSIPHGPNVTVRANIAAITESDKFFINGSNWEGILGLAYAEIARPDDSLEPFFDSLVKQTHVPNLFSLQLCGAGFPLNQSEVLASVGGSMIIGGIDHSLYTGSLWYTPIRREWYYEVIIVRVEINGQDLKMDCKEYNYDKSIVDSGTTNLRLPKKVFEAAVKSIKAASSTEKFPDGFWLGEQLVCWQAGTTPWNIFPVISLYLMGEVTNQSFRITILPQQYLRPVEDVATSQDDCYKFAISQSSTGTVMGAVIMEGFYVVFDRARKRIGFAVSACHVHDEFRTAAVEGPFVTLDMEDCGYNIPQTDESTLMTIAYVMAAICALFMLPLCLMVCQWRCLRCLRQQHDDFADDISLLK

SMILES | melting point [°C] | IC50 [1] [nM]
CCCC(CCC)N1CCn2c(C(=O)N[C@@H](Cc3ccccc3)[C@H](O)CNC3(c4cccc(C(F)(F)F)c4)CC3)ccc2C1=O.Cl | 176 | 
CC(C)(C)OC(=O)N1CCn2c(C(=O)N[C@@H](Cc3ccccc3)[C@H](O)CNC3(c4cccc(C(F)(F)F)c4)CC3)cc(C(=O)O)c2C1 [Compound 2, 6-{[(1S,2R)-1-Benzyl-2-hydroxy-3-({1-[3-(trifluoromethyl)phenyl]cyclopropyl}amino)propyl]carbamoyl}-2-(tert-butoxycarbonyl)-1,2,3,4-tetrahydropyrrolo[1,2-a]pyrazine-8-carboxylic acid] | 134.5 | 
CCN(CC)C(=O)c1cc(C(=O)N[C@@H](Cc2ccccc2)[C@H](O)CNC2(c3cccc(C(F)(F)F)c3)CC2)n2c1CNCC2 [Compound 5, 6-{(1S,2R)-1-benzyl-2-hydroxy-3-[1-(3-trifluoromethylphenyl)cyclopropylamino]propyl}-N-8,N-8-diethyl-1,2,3,4-tetrahydropyrrolo[1,2-a]pyrazine-6,8-dicarboxamide] |  | 310
COC(=O)c1cc(C(=O)N[C@@H](Cc2ccccc2)[C@H](O)CNC2(c3cccc(C(F)(F)F)c3)CC2)n2c1CN(C(=O)OC(C)(C)C)CC2 [Compound 1, 2-tert-Butyl 8-methyl 6-{[(1S,2R)-1-benzyl-2-hydroxy-3-({1-[3-(trifluoromethyl)phenyl]cyclopropyl}amino)propyl]carbamoyl}-3,4-dihydropyrrolo[1,2-a]pyrazine-2,8(1H)-dicarboxylate] | 136 | 

Other lines, results leading:

melting point [°C] | IC50 [1] [nM] | SMILES
168 | 370 | CCCC(CCC)N1CCn2c(C(=O)N[C@@H](Cc3ccccc3)[C@H](O)CNCc3cccc(C(F)(F)F)c3)ccc2C1=O.Cl [Compound 9, N-[(1S,2R)-1-Benzyl-2-hydroxy-3-{[3-(trifluoromethyl)benzyl]amino}propyl]-1-oxo-2-(1-propylbutyl)-1,2,3,4-tetrahydropyrrolo[1,2-a]pyrazine-6-carboxamide hydrochloride (1:1)]
183 | 480 | CCCC(CCC)N1CCn2c(C(=O)N[C@@H](Cc3cc(F)cc(F)c3)[C@H](O)CNC3(c4cccc(C(F)(F)F)c4)CC3)ccc2C1=O.Cl [Compound 7, N-[(1S,2R)-1-(3,5-Difluorobenzyl)-2-hydroxy-3-({1-[3-(trifluoromethyl)-phenyl]cyclopropyl}amino)propyl]-1-oxo-2-(1-propylbutyl)-1,2,3,4-tetrahydropyrrolo[1,2-a]pyrazine-6-carboxamide hydrochloride (1:1)]
 | 1400 | CCCC(CCC)N1CCCn2c(C(=O)N[C@@H](Cc3ccccc3)[C@H](O)CNCc3cccc(C(F)(F)F)c3)ccc2C1=O [Compound 11, N-[(1S,2R)-1-Benzyl-2-hydroxy-3-{[3-(trifluoromethyl)benzyl]amino}propyl]-1-oxo-2-(1-propylbutyl)-2,3,4,5-tetrahydro-1H-pyrrolo[1,2-a][1,4]diazepine-7-carboxamide hydrochloride (1:1)]
143 |  | CCN(CC)C(=O)c1cc(C(=O)N[C@@H](Cc2ccccc2)[C@H](O)CNC2(c3cccc(C(F)(F)F)c3)CC2)n2c1CNCC2 (as salt: HCl) [Compound 5, 6-{(1S,2R)-1-benzyl-2-hydroxy-3-[1-(3-trifluoromethylphenyl)cyclopropylamino]propyl}-N-8,N-8-diethyl-1,2,3,4-tetrahydropyrrolo[1,2-a]pyrazine-6,8-dicarboxamide]
